We go through seven molecules from patent publication US9586973B2, “HDAC6 inhibitors and uses thereof” (Universiteit Gent, priority 2013, dated 2017).

The target of one assay is HDAC1 (Homo sapiens, UniProt Q13547). The assay is described as follows: HDAC1 inhibitory activity (in vitro pharmacology). In kind it is biochemical. The conditions noted are these: for inhibition at 10 µM: read-out: % inhibition HDAC1.
The next assay deals with T1, HDAC6 (Homo sapiens, UniProt Q9UBN7).
T1 sequence (Q9UBN7 1-1215): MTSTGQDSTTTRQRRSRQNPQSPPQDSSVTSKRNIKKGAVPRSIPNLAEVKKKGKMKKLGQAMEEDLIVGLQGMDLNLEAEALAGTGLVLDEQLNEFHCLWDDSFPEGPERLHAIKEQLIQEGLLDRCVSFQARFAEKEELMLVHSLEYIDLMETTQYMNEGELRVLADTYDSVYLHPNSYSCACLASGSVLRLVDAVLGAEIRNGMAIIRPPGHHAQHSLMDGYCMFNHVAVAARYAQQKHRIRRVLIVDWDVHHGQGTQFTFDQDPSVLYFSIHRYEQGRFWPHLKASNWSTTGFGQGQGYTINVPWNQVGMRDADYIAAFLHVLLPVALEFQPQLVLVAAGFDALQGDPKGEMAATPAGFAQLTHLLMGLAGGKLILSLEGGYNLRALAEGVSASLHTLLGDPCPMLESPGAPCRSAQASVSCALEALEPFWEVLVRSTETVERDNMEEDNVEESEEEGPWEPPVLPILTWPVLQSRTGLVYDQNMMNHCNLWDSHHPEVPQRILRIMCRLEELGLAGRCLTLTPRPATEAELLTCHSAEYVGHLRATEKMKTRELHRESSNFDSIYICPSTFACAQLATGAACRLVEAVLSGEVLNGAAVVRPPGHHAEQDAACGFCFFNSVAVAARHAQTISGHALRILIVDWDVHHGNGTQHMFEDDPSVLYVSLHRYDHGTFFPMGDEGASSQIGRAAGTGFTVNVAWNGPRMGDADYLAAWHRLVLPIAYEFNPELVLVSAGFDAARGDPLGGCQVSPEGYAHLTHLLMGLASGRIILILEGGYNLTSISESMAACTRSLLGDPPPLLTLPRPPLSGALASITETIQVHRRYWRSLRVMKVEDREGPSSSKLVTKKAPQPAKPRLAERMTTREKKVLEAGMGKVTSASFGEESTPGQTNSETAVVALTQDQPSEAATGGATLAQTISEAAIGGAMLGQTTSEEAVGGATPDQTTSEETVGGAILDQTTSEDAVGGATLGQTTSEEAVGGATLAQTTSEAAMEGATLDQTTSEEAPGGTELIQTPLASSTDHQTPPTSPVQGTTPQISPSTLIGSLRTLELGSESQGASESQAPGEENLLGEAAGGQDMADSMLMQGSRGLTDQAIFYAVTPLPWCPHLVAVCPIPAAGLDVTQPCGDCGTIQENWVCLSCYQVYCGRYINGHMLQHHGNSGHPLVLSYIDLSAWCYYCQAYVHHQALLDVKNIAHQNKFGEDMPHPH
The assay is described as follows: biochemical. The note with it: for inhibition at 10 µM: read-out: % inhibition HDAC6.

Assay [1] concerns MO4 mouse fibrosarcoma cells. The assay is described as follows: SRB assay, inhibition of cell proliferation. In kind it is cell-based. The note with it: tested at 0.01, 0.1, 1 and 10 μg/ml, FIG. 2. The method, then: The sulforhodamine B (SRB) assay is used for cell density determination, and is based on the measurement of cellular protein content (“biomass”)^12,13. The method has been optimized for the screening of compounds for growth effects on adherent cells in a 96-well format. After an incubation period with the compound of the invention, cell monolayers (MO4 mouse fibrosarcoma cells) are fixed with 50% (wt/vol) trichloroacetic acid for 1 hour and stained with SRB for 30 min, after which the excess dye is removed by washing repeatedly with 1% (vol/vol) […]. The protein-bound dye is dissolved in 10 mM Tris base solution for OD determination at 570 nm using a microplate reader. […] The method allows to test a large number of samples within a few days, and is a quantitative assay for growth inhibition by microtubule inhibitors.
In general terms: In SRB staining, fixed cells bind dye roughly in proportion to their protein.

Assay [2] is described as follows: MTT assay, inhibition of cell proliferation. The note with it: tested at 0.01, 0.1, 1 and 10 μg/ml; FIG. 3. A general note: Tetrazolium assays rely on reduction of a dye to a coloured formazan, in cell work by metabolically active cells.
In another assay the target is HDAC4 (Homo sapiens, UniProt P56524). The assay is described as follows: HDAC4 inhibition (selectivity). The format is biochemical.
Chain of HDAC4 (P56524 whole entry, species assumed): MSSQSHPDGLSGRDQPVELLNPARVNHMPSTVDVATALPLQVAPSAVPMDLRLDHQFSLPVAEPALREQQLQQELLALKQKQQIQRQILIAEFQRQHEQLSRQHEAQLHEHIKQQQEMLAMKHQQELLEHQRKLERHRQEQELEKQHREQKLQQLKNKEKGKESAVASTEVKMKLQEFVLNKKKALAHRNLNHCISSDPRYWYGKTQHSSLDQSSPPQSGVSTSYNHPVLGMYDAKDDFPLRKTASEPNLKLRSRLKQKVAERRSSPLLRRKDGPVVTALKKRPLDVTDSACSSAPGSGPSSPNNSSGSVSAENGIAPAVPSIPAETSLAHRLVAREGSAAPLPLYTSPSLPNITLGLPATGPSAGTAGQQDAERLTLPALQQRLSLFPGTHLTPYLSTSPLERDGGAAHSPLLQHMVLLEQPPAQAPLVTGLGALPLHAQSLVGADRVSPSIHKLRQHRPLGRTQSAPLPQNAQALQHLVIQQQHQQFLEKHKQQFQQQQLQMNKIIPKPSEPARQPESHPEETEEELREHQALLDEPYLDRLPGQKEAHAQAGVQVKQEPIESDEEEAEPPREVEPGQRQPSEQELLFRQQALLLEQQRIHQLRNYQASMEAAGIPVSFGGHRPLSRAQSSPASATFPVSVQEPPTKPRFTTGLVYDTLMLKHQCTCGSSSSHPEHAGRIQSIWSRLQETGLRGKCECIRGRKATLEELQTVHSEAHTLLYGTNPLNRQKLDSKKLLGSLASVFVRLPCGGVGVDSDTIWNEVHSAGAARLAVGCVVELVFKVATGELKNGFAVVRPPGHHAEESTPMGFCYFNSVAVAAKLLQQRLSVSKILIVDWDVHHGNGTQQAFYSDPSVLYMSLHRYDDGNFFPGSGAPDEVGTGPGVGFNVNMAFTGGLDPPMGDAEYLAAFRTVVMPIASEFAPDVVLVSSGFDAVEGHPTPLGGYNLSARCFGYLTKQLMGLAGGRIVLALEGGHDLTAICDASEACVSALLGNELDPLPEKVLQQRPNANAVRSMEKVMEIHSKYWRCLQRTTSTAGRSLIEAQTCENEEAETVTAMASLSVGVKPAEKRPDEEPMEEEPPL
A further assay has as its target T2, HDAC8 (Homo sapiens, UniProt Q9BY41).
T2 sequence (Q9BY41 1-377): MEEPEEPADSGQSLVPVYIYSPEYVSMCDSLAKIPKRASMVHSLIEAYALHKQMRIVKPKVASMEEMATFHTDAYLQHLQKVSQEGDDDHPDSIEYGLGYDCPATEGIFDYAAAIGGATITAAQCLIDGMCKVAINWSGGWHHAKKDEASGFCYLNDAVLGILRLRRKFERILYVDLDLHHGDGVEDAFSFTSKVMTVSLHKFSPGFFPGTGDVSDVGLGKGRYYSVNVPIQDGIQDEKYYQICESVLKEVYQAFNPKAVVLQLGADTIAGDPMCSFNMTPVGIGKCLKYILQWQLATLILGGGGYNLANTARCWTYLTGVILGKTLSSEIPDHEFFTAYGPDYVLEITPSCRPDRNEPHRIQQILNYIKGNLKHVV
The assay is described as follows: HDAC8 inhibition (selectivity). The format is biochemical.

The next assay deals with T3, HDAC11 (Homo sapiens, UniProt Q96DB2).
T3 sequence (Q96DB2 1-347): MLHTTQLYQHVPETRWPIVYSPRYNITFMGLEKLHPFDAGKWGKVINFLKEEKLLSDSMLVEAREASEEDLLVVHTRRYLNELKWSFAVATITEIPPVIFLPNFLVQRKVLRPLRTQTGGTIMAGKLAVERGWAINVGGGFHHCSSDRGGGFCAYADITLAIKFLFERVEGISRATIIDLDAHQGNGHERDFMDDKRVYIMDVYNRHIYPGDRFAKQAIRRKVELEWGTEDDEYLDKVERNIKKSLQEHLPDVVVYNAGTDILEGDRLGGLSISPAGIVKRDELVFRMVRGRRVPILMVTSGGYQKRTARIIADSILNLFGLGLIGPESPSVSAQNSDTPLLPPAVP
The assay is described as follows: HDAC11 inhibition (selectivity). In kind it is biochemical. The note with it: for HDAC 11 inhibitory effect: no IC50 values could be obtained.

Assay [3] has as its system MDA MB 231 human mammary adenocarcinoma cells. The assay is described as follows: Collagen invasion assay. In kind it is cell-based. The conditions noted are these: for inhibition of invasion of cells into collagen type I gel: 24 hours, FIG. 4. The source says: Tissue invasion requires infiltration into an extracellular matrix (ECM) dominated by networks of collagen type I. The invasion model consists of native, acid-extracted rat tail collagen type I containing nonhelical telopeptides situated at the N- and C-terminal ends. These telopeptides play an important role in intermolecular covalent cross-links necessary for a gel architecture presenting itself as a structural barrier to cancer cell traffic. […] The collagen type I solution was gently poured into the wells of a 6-well plate. The experimental set-up was placed at 37° C. in a humidified atmosphere with 10% CO2 in air for at least 1 h. […] Invasion is calculated as the percentage of invading cells per high powered field and is expressed as the mean and standard deviation.
Compound 7c (10 μg/ml) and paclitaxel (1 μg/ml) were tested in the assay. As a control, cells in medium without additional compounds was used. The effect of the solvent of compound 7c (1% DMSO) was measured as well.

The mark [4] stands for this setting: read-out: IC50 values for HDAC6 inhibition, Table 3 and text.

Like-named read-outs stand apart in the source and are kept apart here.

Chain of HDAC1 (Q13547 whole entry, species assumed): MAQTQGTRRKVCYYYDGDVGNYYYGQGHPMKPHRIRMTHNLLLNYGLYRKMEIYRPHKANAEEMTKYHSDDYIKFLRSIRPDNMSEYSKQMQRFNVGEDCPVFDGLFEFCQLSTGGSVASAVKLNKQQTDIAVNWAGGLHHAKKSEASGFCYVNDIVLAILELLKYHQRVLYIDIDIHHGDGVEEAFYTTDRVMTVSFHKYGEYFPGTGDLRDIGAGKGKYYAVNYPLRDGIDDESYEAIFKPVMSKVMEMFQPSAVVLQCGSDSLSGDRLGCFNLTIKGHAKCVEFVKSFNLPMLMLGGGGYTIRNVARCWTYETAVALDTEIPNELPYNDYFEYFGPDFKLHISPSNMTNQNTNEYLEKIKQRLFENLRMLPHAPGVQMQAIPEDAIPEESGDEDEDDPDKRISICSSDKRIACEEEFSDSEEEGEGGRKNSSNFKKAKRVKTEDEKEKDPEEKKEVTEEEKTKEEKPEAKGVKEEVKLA

As usually defined, the inhibition is the relative decrease from the control value, in per cent. The term IC50 denotes the concentration that inhibits the measured activity by half. Take `COc1cc(C(=O)NO)ccc1Cn1c2c(c3cc(F)ccc31)CS(=O)(=O)CC2` [Compound 10d]: the inhibition at 10 µM on HDAC1 was 8%. On HDAC6, the IC50 is 1300 nM and the inhibition at 10 µM amounted to 75%.

For `O=C(NO)c1ccc(Cn2c3c(c4ccccc42)CSCC3)cc1` [Compound 7a, N-(4-Hydroxycarbamoylbenzyl)-1,2,4,9-tetrahydro-3-thia-9-azafluorene], the inhibition at 10 µM on HDAC1 was found to be 26%; at HDAC6 it was 99%. The IC50 against HDAC6 amounted to 15 nM. The “inhibition of cell proliferation, SRB assay” value (“inhibition … SRB assay” for short) in assay [1] is “inhibit cell proliferation”; in assay [1] (listed as 7A), “inhibition of cell proliferation”. For the same molecule, the “inhibition of cell proliferation, MTT assay” value (“inhibition … MTT assay” for short) in assay [2] is “inhibition of cell proliferation”.

As for `COc1cc(C(=O)NO)ccc1Cn1c2c(c3ccccc31)CS(=O)(=O)CC2` [Compound 10b], the inhibition at 10 µM on HDAC1 came out at 2%. In addition, on HDAC6, 2000 nM corresponded to half-maximal inhibition (IC50) and the inhibition at 10 µM is 73%.

`O=C(NO)c1ccc(Cn2c3c(c4cc(F)ccc42)CSCC3)cc1` [Compound 7c, N-(4-Hydroxycarbamoylbenzyl)-6-fluoro-1,2,4,9-tetrahydro-3-thia-9-azafluorene]: the IC50 was determined as 21000 nM against HDAC1; 22 nM on HDAC6; 22 nM on HDAC6 (read-out: HDAC6 IC50, Table 4); 22 nM on HDAC6 (setting [4]); 1500 nM at HDAC4; 2800 nM at HDAC8. The IC50 on HDAC11 is 9700 nM. The inhibition at 10 µM amounted to 17% on HDAC1 and 99% at HDAC6. On HDAC6, the “HDAC6 versus HDAC8 selectivity” value was determined as 127 fold. The “inhibition … SRB assay” value is recorded as “inhibit cell proliferation” in assay [1] and “inhibition of cell proliferation” in assay [1] (listed as 7C). The “inhibition of invasion of cells into collagen type I gel” value in assay [3] (10 μg/ml, compared to solvent control (1% DMSO)) is reported as “inhibits invasion”; in assay [3] (10 μg/ml, compared to solvent control (1% DMSO), listed as 7C), “inhibition of invasion”. Moreover, the histology of invasion entry in assay [3] (after 14 days) is on record as “confirmed inhibition of invasion”. In assay [2], the “inhibition … MTT assay” value is recorded as “inhibition of cell proliferation”.

As to `O=C(NO)c1ccc(Cn2c3c(c4cc(F)ccc42)CS(=O)(=O)CC3)cc1` [Compound 10c, N-(4-Hydroxycarbamoylbenzyl)-6-fluoro-1,2,4,9-tetrahydro-3-thia-9-azafluorene-3,3-dioxide], the IC50 on HDAC1 turned out to be 12000 nM; on HDAC1 (read-out: HDAC1 IC50, Table 5) it was 12000 nM; against HDAC6, 3.7 nM; on HDAC6 (read-out: HDAC6 IC50, Table 4), 3.7 nM; on HDAC6 (read-out: HDAC6 IC50, Table 5), 3.7 nM; on HDAC6 (setting [4]), 3.7 nM. The values for the IC50 on HDAC4 and on HDAC8 were 1900 nM and 930 nM, respectively. In addition, the values for the inhibition at 10 µM at HDAC1 and on HDAC6 were 53% and 99%, respectively. Besides, the “HDAC6 versus HDAC4 selectivity” value on HDAC6 is recorded as 513 fold. On HDAC6, the “HDAC6 versus HDAC8 selectivity” value came out at 251 fold. At HDAC6, the “selectivity against HDAC1 (HDAC6 vs HDAC1)” value worked out at 3243 fold. Moreover, the “Selectivity = IC50 (HDAC1)/IC50 (HDAC6)” value at HDAC6 (Table 5) was determined as 3243. Further, the “HDAC 11 inhibitory effect” value on HDAC11 is listed as “very low”.

On to `CC(=O)O[C@H]1C(=O)[C@@]2(C)[C@H]([C@H](OC(=O)c3ccccc3)[C@]3(O)C[C@H](OC(=O)[C@H](O)[C@@H](NC(=O)c4ccccc4)c4ccccc4)C(C)=C1C3(C)C)[C@]1(OC(C)=O)CO[C@@H]1C[C@@H]2O` [Paclitaxel, reference compound], for which, in assay [1], the “inhibition … SRB assay” value is on record as “inhibition of cell proliferation”. In addition, in assay [3] (1 μg/ml), the “inhibition of invasion of cells into collagen type I gel” value was “inhibition of invasion”. Also, the “inhibition … MTT assay” value in assay [2] was “inhibition of cell proliferation”.

On to `O=C(NO)c1ccc(Cn2c3c(c4ccccc42)CS(=O)(=O)CC3)cc1` [Compound 10a, N-(4-Hydroxycarbamoylbenzyl)-1,2,4,9-tetrahydro-3-thia-9-azafluorene-3,3-dioxide], for which the IC50 amounted to 11000 nM on HDAC1; 11000 nM on HDAC1 (read-out: HDAC1 IC50, Table 5); 1.9 nM at HDAC6; 1.9 nM at HDAC6 (read-out: HDAC6 IC50, Table 4); 1.9 nM at HDAC6 (read-out: HDAC6 IC50, Table 5); 1.9 nM on HDAC6 (setting [4]). The IC50 on HDAC4 came out at 1600 nM; against HDAC8, 1700 nM. The inhibition at 10 µM on HDAC1 amounted to 51%; at HDAC6 it was 99%. Also, the “HDAC6 versus HDAC4 selectivity” value on HDAC6 is recorded as 842 fold. On HDAC6, the “HDAC6 versus HDAC8 selectivity” value was 895 fold. Also, the “selectivity against HDAC1 (HDAC6 vs HDAC1)” value on HDAC6 is 5789 fold. Also, on HDAC6 (Table 5), the “Selectivity = IC50 (HDAC1)/IC50 (HDAC6)” value is 5789. For the same molecule, at HDAC11, the “HDAC 11 inhibitory effect” value is “very low”.
